Experimental data taken from US10864212B2, “Compositions and methods for treating retinal degradation” (University of Kentucky Research Foundation, priority 2013, dated 2020).
“Also recorded” adds a separate entry of the source. Values belong to the compound of their own block, whether it stands above or below them.

Assays:
human P2X7 receptor = target: T1, human P2X7 receptor (Homo sapiens, UniProt Q99572); test: bzATP-induced YO-PRO-1 dye uptake in HEK293 cells stably expressing the human P2X7 receptor; type: cell-based
T1 construct: expressed in transfected cells
T1 sequence (Q99572 1-595): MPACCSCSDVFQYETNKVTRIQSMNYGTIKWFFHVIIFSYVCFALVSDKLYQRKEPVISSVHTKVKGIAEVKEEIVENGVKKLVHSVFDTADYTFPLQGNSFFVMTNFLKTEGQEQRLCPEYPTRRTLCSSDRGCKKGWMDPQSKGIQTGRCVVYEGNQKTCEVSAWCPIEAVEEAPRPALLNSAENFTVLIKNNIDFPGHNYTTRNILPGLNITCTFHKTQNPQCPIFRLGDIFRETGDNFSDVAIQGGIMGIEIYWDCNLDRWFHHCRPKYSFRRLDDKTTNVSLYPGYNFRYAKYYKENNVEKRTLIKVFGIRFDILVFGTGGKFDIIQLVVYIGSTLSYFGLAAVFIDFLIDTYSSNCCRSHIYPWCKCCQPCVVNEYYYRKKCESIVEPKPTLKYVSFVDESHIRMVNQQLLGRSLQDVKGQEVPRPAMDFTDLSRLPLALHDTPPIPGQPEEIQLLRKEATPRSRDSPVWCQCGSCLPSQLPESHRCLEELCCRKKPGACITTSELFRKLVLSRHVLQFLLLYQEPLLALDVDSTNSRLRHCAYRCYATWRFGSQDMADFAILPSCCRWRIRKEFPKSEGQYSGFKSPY
Source text: Finally, P2X7 activation is associated with the formation of a large pore that is permeable to molecules of up to ˜1000 Da (Adinolfi et al., 2005; Cheewatrakoolpong et al., 2005; Surprenant et al., 1996).

Caspase-1 [1] = test: Western blot of Caspase-1 activation in primary human RPE cells transfected with Alu RNA; type: cell-based; settings: for Caspase-1 maturation caused by Alu RNA: 24 hours after Alu administration, 50-100 uM, FIG. 7; for Caspase-1 activation / cleavage (p20) induced by Alu RNA: concentration not given
Procedure: The bottom row is a vinculin loading control. […]
FIG. 7 is a Western blot showing that Alu RNA causes Caspase-1 maturation in primary human RPE cells at 24 hours after Alu administration (top, middle lane, lower band), which is blocked with co-treatment with azidothymidine (AZT), cordycepin, and abacavir (ABC) (50-100 uM; lanes 3-8 from left). The loading control vinculin is shown on the bottom.
FIG. 21 is a Western blot of Caspase-1 activation (p20 subunit) in primary human RPE cells transfected with Alu RNA±me-d4T.
FIG. 35 is a Western blot of Caspase-1 activation in human RPE cells transfected with Alu RNA±NRTIs (3TC, AZT, ABC).
The bottom row in FIG. 5 is a vinculin loading control. […]
Next, FIG. 7 provides evidence of AZT, cordycepin, and abacavir inhibition of inflammasome activation by Alu RNA. Indeed, Alu RNA causes NLRP3 inflammasome activation, which is marked by processing of the enzyme Caspase 1. FIG. 7 is a Western blot showing that Alu RNA causes Caspase-1 maturation in primary human RPE cells at 24 hours after Alu administration (top, lane 2, lower band), which is blocked with co-treatment with azidothymidine (AZT), cordycepin, and abacavir (ABC) (50-100 uM; Lanes 3-8). Again, the loading control vinculin is shown on the bottom.

RPE degeneration = RPE degeneration in mice after sub-retinal injection of a plasmid expressing Alu RNA, systemic drug administration; type: in vivo, mouse
Source text: FIG. 24, top row, provides flat mounts stained for zonula occludens-1 (ZO-1; red), bottom row. Degeneration is outlined if FIG. 24 by blue arrowheads. Representative images of n=4 are shown.
FIG. 36 and FIG. 37 include fundus photographs: top row; flat mounts stained for zonula occludens-1 (ZO-1; red), bottom row. Degeneration is outlined by blue arrowheads. Scale bars, 50 μm.

[2] = test system: Raji TK^+ and Raji TK^− cells; test: Phosphorylation of AZT to AZT-triphosphate in Raji TK+ and TK- cells (LC-MS); type: in vitro ADME; settings: FIG. 40, 50
Source text: FIG. 50 is a standard curve of AZT-TP standards (black circle).
(§1) To determine whether LPS/ATP-induced inflammasome activation can be inhibited without RT inhibition, the present inventors utilized thymidine kinase-deficient (Raji/TK^−) and -expressing (Raji/TK^+) cells (Balzarini et al., 1989). After addition of AZT, […], but not TK^− cells, the present inventors produced AZT-triphosphate (AZT-TP), the AZT metabolite required for RT inhibition (FIG. 40; FIG. 46, FIG. 47, FIG. 48, FIG. 49, FIG. 50).
FIG. 50 is a standard curve of AZT-TP standards (black circle). […] FIG. 50 is representative of two experiments.

IL-1 beta [3] = test: LPS/ATP-induced IL-1 beta activation in Raji TK- and TK+ cells (Western blot of cell lysates); type: cell-based; settings: FIG. 41
Source text: as §1
(§2) FIGS. 38-41 illustrate that NRTIs block LPS/ATP-induced inflammasome activation. […] Representative images of n=3-4 experiments are provided in each of FIGS. 38-41.

Caspase-1 [4] = test: LPS/ATP-induced Caspase-1 activation in mouse bone marrow-derived macrophages (Western blot); type: cell-based; settings: mouse bone marrow-derived macrophages, supernatants; 100 uM; FIG. 9
Source text: (§3) To produce FIG. 9, cell culture supernatants were collected after (i) no treatment, (ii) LPS treatment, or (iii) LPS/ATP treatment of mouse bone marrow-derived macrophages and run on Western blotting probing with antibodies for Caspase-1 and IL-18.
Further, the present inventors also tested whether NRTIs blocked inflammasome activation by LPS/ATP, which is not known to signal via reverse transcriptase (Mariathasan et al., 2004; Mariathasan et al., 2006; Martinon et al., 2002).
as §2

IL-18 = test: LPS/ATP-induced IL-18 maturation in mouse bone marrow-derived macrophages (Western blot); type: cell-based; settings: supernatants, 100 uM, FIG. 9
Source text: as §3

IL-1 beta [5] = test: MSU-induced IL-1 beta secretion from PMA-differentiated THP-1 monocytes (ELISA); type: cell-based, human; settings: co-administration at 25-1000 uM, FIG. 11, 12
Source text: Human THP-1 monocytes were differentiated into macrophages with PMA.
To illustrate this, human THP-1 monocytes were differentiated into macrophages with PMA. Treatment with MSU increased IL-1 beta secretion compared to non-treated cells.

[6] = test system: GFP-expressing lentivirus; test: Replication of a GFP-expressing lentivirus in HeLa cells; type: cell-based; settings: FIG. 22
Source text: The present disclosure further provides the results of additional experiments in FIG. 21-FIG. 23.

P2X7-mediated YO-PRO-1 dye uptake (fluorescence) induced by bzATP (human P2X7 receptor; bzATP 100 μM, 64 μM for both drugs, p<0.05, n=12, FIG. 43): inhibited
Compound: Clc1cccc(-c2nnnn2Cc2cccnc2)c1Cl [A438079]

Compound: Cc1cn([C@H]2C[C@H](N=[N+]=[N-])[C@@H](CO)O2)c(=O)[nH]c1=O [AZT, 3′-azido-2′,3′-dideoxythymidine]
Caspase-1 maturation caused by Alu RNA (Caspase-1 [1]): blocked
Caspase-1 activation / cleavage (p20) induced by Alu RNA (Caspase-1 [1]; FIG. 21, 34, 35, 51-53): block Caspase 1 activation by Alu RNA; also recorded: block Caspase-1 cleavage induced by Alu RNA
P2X7-dependent uptake of YO-PRO1 after addition of bzATP (human P2X7 receptor; human P2X7-overexpressing HEK293 stable cell line, concentration not given): inhibited P2X7-dependent uptake of the fluorescent dye YO-PRO1
RPE degeneration caused by pAlu (RPE degeneration; intraperitoneal administration of AZT, FIG. 37): prevent RPE degeneration; also recorded: prevented
Phosphorylation of AZT to AZT-triphosphate (AZT-TP) ([2]; Raji TK^+ cells): produced AZT-TP; also recorded: phosphorylate AZT to AZT-triphosphate (AZT-TP)
Phosphorylation of AZT to AZT-triphosphate (AZT-TP) ([2]; Raji TK^− (thymidine kinase-deficient) cells): is not phosphorylated; also recorded: AZT was not phosphorylated; also recorded: AZT-TP was not detectable; also recorded: but not Raji TK^− cells
IL-1 beta activation by LPS/ATP (IL-1 beta [3]; Raji TK^+ cells): blocks IL-1 beta activation
IL-1 beta activation by LPS/ATP (IL-1 beta [3]; Raji TK^− cells): still blocks LPS/ATP-induced interleukin-1 beta secretion; also recorded: still inhibited LPS/ATP-induced interleukin-1 beta maturation; also recorded: blocks IL-1 beta activation

Compound: Clc1ccc(C(c2ccc(Cl)cc2)n2cc[n+](CC(OCc3ccc(Cl)cc3Cl)c3ccc(Cl)cc3Cl)c2)cc1 (stereo not shown) [calmidazolium]
Caspase-1 activation / cleavage (p20) induced by Alu RNA (Caspase-1 [1]; FIG. 21, 34, 35, 51-53): not inhibited

Compound: Nc1ncnc2c1ncn2[C@@H]1O[C@H](CO)C[C@H]1O [cordycepin]
Caspase-1 maturation caused by Alu RNA (Caspase-1 [1]): blocked
Caspase-1 activation (active p20 band) induced by LPS/ATP (Caspase-1 [4]): inhibit
IL-18 maturation induced by LPS/ATP (IL-18): inhibit
IL-1 beta secretion induced by MSU (IL-1 beta [5]): did not significantly affect IL-1beta secretion

Compound: COC[C@@H]1C=C[C@H](n2cc(C)c(=O)[nH]c2=O)O1 [me-d4T, 5′-OCH3-d4T]
Caspase-1 activation / cleavage (p20) induced by Alu RNA (Caspase-1 [1]; FIG. 21, 34, 35, 51-53): blocks Caspase-1 activation in human RPE cells
Caspase-1 activation / cleavage (p20) induced by Alu RNA (Caspase-1 [1]; FIG. 21, 34, 35, 51-53, listed as 5′-methoxy-d4T): block Caspase 1 activation by Alu RNA
Replication of a GFP-expressing lentivirus ([6]; HeLa cells): does not block lentivirus replication
Reverse transcriptase inhibition ([6]; confirmed by lentivirus replication): does not inhibit reverse transcriptase
Alu-induced RPE degeneration (RPE degeneration; me-d4T intraperitoneal injection, n=4, FIG. 24): prevents Alu-induced RPE degeneration in mice
